Experimental data published in patent US20160016951A1 (Merck Patent GmbH, priority 2014, published 2016).

The molecules below were run against T1, CDK8 (CDK8/CycC) (Homo sapiens, UniProt P49336) (assay: FRET based Lanthascreen binding competition assay). Details: 5 nM CDK8/CycC, 10 nM Alexa647-Tracer, 1% DMSO, 60 min at RT; read-out: IC50 CDK8 binding.
T1 construct: purchased Invitrogen PV4402
Procedure: FRET based Lanthascreen binding competition assay: A dye-labeled ATP competitive probe served as a FRET acceptor upon binding to CDK8 labeled with a strepavidin —Eu-chelate (via abiotinylated anti His antibody). […] In case this probe was competed by an inhibitor as such a signal cannot be generated any more. The CDK8 used for this assay was a protein co-expressed with CycC.
The assay procedure for an assay in a 1536 well plate was performed according to the following: 2 μL CDK8/biotin-anti-His Ab/SA-Eu mix in Assay buffer were pipetted into the wells of a micro plate.
1 μL compound in 20 mM Hepes buffer/5% DMSO was added. The plate was shaken for 30 sec and incubated for 20 min at RT. 2 μL Alexa647-probe in assay buffer were added. The plate was shaken for 30 sec again and incubated for 60 min at RT in the dark. Then the plate was read out on a Perkin Elmer Envision (mode LANCE/TRF, excitation 340 nm emission 650 nm).

T1 sequence (P49336 whole entry): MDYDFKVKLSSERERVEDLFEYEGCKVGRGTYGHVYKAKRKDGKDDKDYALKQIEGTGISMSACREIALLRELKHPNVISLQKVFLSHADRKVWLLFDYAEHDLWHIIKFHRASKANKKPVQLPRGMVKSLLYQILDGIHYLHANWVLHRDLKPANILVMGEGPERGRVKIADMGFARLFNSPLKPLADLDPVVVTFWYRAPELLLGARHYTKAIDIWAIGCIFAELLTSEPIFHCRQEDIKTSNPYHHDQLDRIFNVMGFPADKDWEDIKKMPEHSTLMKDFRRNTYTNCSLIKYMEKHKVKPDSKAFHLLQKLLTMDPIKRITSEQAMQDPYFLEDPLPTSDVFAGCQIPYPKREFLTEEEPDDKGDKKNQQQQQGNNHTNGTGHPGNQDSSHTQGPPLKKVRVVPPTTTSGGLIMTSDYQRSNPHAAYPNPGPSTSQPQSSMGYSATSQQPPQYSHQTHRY
T1 sequence (P24863 whole entry partner): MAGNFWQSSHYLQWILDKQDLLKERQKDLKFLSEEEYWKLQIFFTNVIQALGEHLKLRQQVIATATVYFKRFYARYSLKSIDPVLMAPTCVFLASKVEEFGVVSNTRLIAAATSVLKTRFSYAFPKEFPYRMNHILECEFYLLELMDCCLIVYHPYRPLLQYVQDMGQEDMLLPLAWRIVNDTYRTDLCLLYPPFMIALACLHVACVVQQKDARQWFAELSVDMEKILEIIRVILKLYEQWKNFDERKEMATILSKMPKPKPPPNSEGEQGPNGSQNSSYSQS

Compound	IC50
COC1CN(C(=O)c2ccc3cncc(-c4ccc(-c5cc(C(F)(F)F)nn5C)cc4)c3n2)C1 [Compound 57, (3-methoxyazetidin-1-yl)(8-(4-(1-methyl-3-(trifluoromethyl)-1H-pyrazol-5-yl)phenyl)-1,6-naphthyridin-2-yl)methanone]	101 to 500 nM
CN(C)C(=O)c1ccc2cncc(-c3ccc4c(c3)CS(=O)(=O)N4)c2n1 [Compound 46, 8-(2,2-Dioxo-2,3-dihydro-1H-benzo[c]isothiazol-5-yl)-[1,6]naphthyridine-2-carboxylic acid dimethylamide]	10 to 100 nM
O=C(c1ccc2cnccc2n1)N1CCC[C@H]1c1ccc(Cl)cc1 [Compound 37, (S)-(2-(4-chlorophenyl)pyrrolidin-1-yl)(1,6-naphthyridin-2-yl)methanone]	< 10 nM
CN(C)C(=O)c1ccc2c(N)ncc(-c3ccc4c(c3)CS(=O)(=O)N4)c2n1 [Compound 59, 5-amino-8-(2,2-dioxido-1,3-dihydrobenzo[c]isothiazol-5-yl)-N,N-dimethyl-1,6-naphthyridine-2-carboxamide]	101 to 500 nM
CC(C)(O)Cn1cc(-c2ccc(-c3cncc4ccc(C(N)=O)cc34)cc2)cn1 [Compound 97, 4-(4-(1-(2-hydroxy-2-methylpropyl)-1H-pyrazol-4-yl)phenyl)isoquinoline-6-carboxamide]	< 10 nM
O=C(c1ccc2cncc(Br)c2n1)N1CCC[C@H]1c1ccc(Cl)cc1 [Compound 34, (S)-(8-bromo-1,6-naphthyridin-2-yl)(2-(4-chlorophenyl)pyrrolidin-1-yl)methanone]	< 10 nM
CNC(=O)c1ccc2c(N)ncc(-c3ccc(-c4cnn(C)c4)cc3F)c2n1 [Compound 40, 5-amino-8-(2-fluoro-4-(1-methyl-1H-pyrazol-4-yl)phenyl)-N-methyl-1,6-naphthyridine-2-carboxamide]	10 to 100 nM
Cn1cc(-c2ccc(-c3cncc4ccc(N5C(=O)CCC5=O)cc34)cc2)cn1 [Compound 126, 1-{4-[4-(1-Methyl-1H-pyrazol-4-yl)-phenyl]-isoquinolin-6-yl}-pyrrolidine-2,5-dione]	101 to 500 nM
CN1c2ccc(-c3cncc4ccc(C(=O)NC5(C)CC5)nc34)cc2CS1(=O)=O [Compound 8, 8-(1-Methyl-2,2-dioxo-2,3-dihydro-1H-benzo[c]isothiazol-5-yl)-[1,6]naphthyridine-2-carboxylic acid (1-methyl-cyclopropyl)-amide]	< 10 nM
COC1CN(C(=O)c2ccc3cncc(-c4ccc5c(cnn5CC(C)(C)O)c4)c3n2)C1 [Compound 52, (8-(1-(2-hydroxy-2-methylpropyl)-1H-indazol-5-yl)-1,6-naphthyridin-2-yl)(3-methoxyazetidin-1-yl)methanone]	10 to 100 nM
COCC(=O)Nc1ccc2cncc(-c3ccc(-c4cnn(C)c4)cc3)c2c1 [Compound 121, 2-Methoxy-N-{4-[4-(1-methyl-1H-pyrazol-4-yl)-phenyl]-isoquinolin-6-yl}-acetamide]	10 to 100 nM
COCCNC(=O)c1ccc2cncc(-c3ccc(-c4cnn(C)c4)cc3)c2n1 [Compound 74, N-(2-Methoxyethyl)-8-(4-(1-methyl-1H-pyrazol-4-yl)phenyl)-1,6-naphthyridine-2-carboxamide]	< 10 nM
Cn1cc(-c2ccc(-c3cncc4ccc(O)nc34)cc2)cn1 [Compound 79, 8-(4-(1-methyl-1H-pyrazol-4-yl)phenyl)-1,6-naphthyridin-2-ol]	501 to 1000 nM
CNCc1ccc2cncc(-c3ccc4c(c3)CS(=O)(=O)N4C)c2n1 [Compound 53, Methyl-[8-(1-methyl-2,2-dioxo-2,3-dihydro-1H-benzo[c]isothiazol-5-yl)-[1,6]naphthyridin-2-ylmethyl]-amine]	10 to 100 nM
Cn1cc(-c2ccc(-c3cncc4ccc(S)nc34)cc2)cn1 [Compound 77, 8-(4-(1-methyl-1H-pyrazol-4-yl)phenyl)-1,6-naphthyridine-2-thiol]	10 to 100 nM
CN(CCO)C(=O)c1ccc2cncc(-c3ccc4c(c3)CS(=O)(=O)N4)c2n1 [Compound 45, 8-(2,2-Dioxo-2,3-dihydro-1H-benzo[c]isothiazol-5-yl)-[1,6]naphthyridine-2-carboxylic acid (2-hydroxy-ethyl)-methyl-amide]	10 to 100 nM

More lines, now with the values ahead:

IC50	Compound
10 to 100 nM	N#Cc1ccc2cncc(-c3ccc4c(c3)NC(=O)C4)c2c1 [Compound 148, 4-(2-oxoindolin-6-yl)isoquinoline-6-carbonitrile]
< 10 nM	Nc1ncc(-c2ccc3c(c2)CS(=O)(=O)N3)c2cc(C(=O)N3CCC3)ccc12 [Compound 194, (1-amino-4-(2,2-dioxido-1,3-dihydrobenzo[c]isothiazol-5-yl)isoquinolin-6-yl)(azetidin-1-yl)methanone]
10 to 100 nM	COC1CN(C(=O)c2ccc3cncc(-c4ccc(-c5cnn(CC(C)(C)O)c5)cc4)c3c2)C1 [Compound 131, (4-(4-(1-(2-hydroxy-2-methylpropyl)-1H-pyrazol-4-yl)phenyl)isoquinolin-6-yl)(3-methoxyazetidin-1-yl)methanone]
10 to 100 nM	COC1(C)CN(C(=O)c2ccc3cncc(-c4ccc(-c5cnn(C)c5)cc4)c3c2)C1 [Compound 185]
10 to 100 nM	CC(C)(O)Cn1cc(-c2ccc(-c3cncc4ccc(N5C(=O)Cc6ccccc65)cc34)cc2)cn1 [Compound 150, 1-(4-(4-(1-(2-hydroxy-2-methylpropyl)-1H-pyrazol-4-yl)phenyl)isoquinolin-6-yl)indolin-2-one]
10 to 100 nM	COC1CN(C(=O)c2ccc3cncc(-c4ccc(-c5ccn(C)n5)cc4)c3n2)C1 [Compound 156, (3-methoxyazetidin-1-yl)(8-(4-(1-methyl-1H-pyrazol-3-yl)phenyl)-1,6-naphthyridin-2-yl)methanone]
< 10 nM	COCCn1cc(-c2ccc(-c3cncc4ccc(NS(C)(=O)=O)cc34)cc2)cn1 [Compound 166, N-(4-(4-(1-(2-methoxyethyl)-1H-pyrazol-4-yl)phenyl)isoquinolin-6-yl)methanesulfonamide]
10 to 100 nM	CC(C)(O)Cn1cc(-c2ccc(-c3cncc4ccc(C(=O)N5CCCC5)cc34)cc2)cn1 [Compound 134]
< 10 nM	Cn1cc(-c2ccc(-c3cncc4ccc(NS(=O)(=O)C5(C)CC5)cc34)cc2)cn1 [Compound 168, 1-Methyl-cyclopropanesulfonic acid {4-[4-(1-methyl-1H-pyrazol-4-yl)-phenyl]-isoquinolin-6-yl}-amide]
101 to 500 nM	COC1CN(C(=O)c2ccc3c(N)ncc(-c4ccc5c(c4)CCC(=O)N5C)c3c2)C1 [Compound 178, 6-(1-amino-6-(3-methoxyazetidine-1-carbonyl)isoquinolin-4-yl)-1-methyl-3,4-dihydroquinolin-2(1H)-one]
10 to 100 nM	Cc1nc(-c2ccc(-c3cncc4ccc(C(=O)N5CC(F)(F)C5)cc34)cc2)cn1C [Compound 175, (3,3-Difluoro-azetidin-1-yl)-{4-[4-(1,2-dimethyl-1H-imidazol-4-yl)-phenyl]-isoquinolin-6-yl}-methanone]
101 to 500 nM	COCCN(c1ccc2cncc(-c3ccc(-c4cnn(C)c4)cc3)c2c1)S(C)(=O)=O [Compound 167, N-(2-methoxyethyl)-N-(4-(4-(1-methyl-1H-pyrazol-4-yl)phenyl)isoquinolin-6-yl)methanesulfonamide]
< 10 nM	COC1CN(C(=O)c2ccc3cncc(-c4ccc5c(c4)N(C)C(=O)C5)c3c2)C1 [Compound 165, 6-[6-(3-Methoxy-azetidine-1-carbonyl)-isoquinolin-4-yl]-1-methyl-1,3-dihydro-indol-2-one]
